Measurements published in patent EP1537869A2, “Radiosensibilizer and preparation thereof” (Christian-Albrechts-Universität zu Kiel, priority 2003, dated 2005).

Key:
[1] = test system: Mammakarzinomzell-Linie MDA-MB 231; test: In vitro toxicity (T/C in %) on breast carcinoma cell line; type: cell-based, menschlichen; conditions: MDA-MB 231, qualitative or ranking
Text: Die Toxizität (T/C in %) weiterer erstmals dargestellter α-Diimin-Komplexe der Nickel-Triade unterschiedlicher Strukturtypen wurde in vitro an der menschlichen Mammakarzinomzell-Linie MDA-MB 231 getestet.

hypoxischen CHO-ZeIlen = test: Radiosensitisation of hypoxic CHO cells (enhancement ratio ER); type: cell-based; conditions: radiosensitising effect
Text: Nickel-α-Diimin-Komplexe der Strukturtypen (α-Diimin)NiCl2 und [(α-Diimin)2Ni](ClO4)2 mit dem α-Diimin Antipy-PCD zeigen gegenüber isosteren Palladium- und Platin-Komplexen erhöhte radiosensibilisierende Wirkungen in hypoxischen CHO-ZeIlen; ER = 1,41 resp. 1,37. Für den unkoordinierten Antipy-PCD-Liganden, mit dem bekannten bioaktiven Molekülteil Phenazon, konnte nur ein sehr geringer strahlensensibilisierender Effekt (ER = 1,13) nachgewiesen werden. Die neutralen α-Diimin-Metall-Halogenid-Komplexe (a) der Nickel-Triade haben gegenüber analogen ionischen Perchlorat-Komplexen (b) eine deutlich höhere radiosensibilisierende Wirkung. Folgende Reihen entsprechender Komplexe - bezogen auf das Zentralmetall - mit abnehmenden o.g. sensibilisierenden Eigenschaften wurden ermittelt: für • (a) Ni > Pd > Pt • (b) Ni > Pt > Pd
Von den untersuchten neuen Platin-α-Diimin-Komplexen ist die fünffach koordinierte (Antipy-PCD)PtCl2(NH3)-Verbindung wegen ihres relativ hohen strahlensensibilisierenden Effektes (ER = 1,36) - verglichen mit ER-Literaturdaten für Platinkomplexe - bedeutsam. Eine entsprechende Sensibilisierung aerobischer CHO-ZeIlen durch die hier untersuchten Substanzen wurde in keinem Fall beobachtet.

in vitro = conditions: hamster, cho cells

| Compound | Toxizität (T/C in %) [1] | ER (hypoxischen CHO-ZeIlen) | viability at 3 h, 300 µM (in vitro) [%] |
| --- | --- | --- | --- |
| COc1cc([N+](=O)[O-])ccc1N=Cc1ccccn1 [2-MeO-4-NO2-Ph-PCD] | merkliche Toxizität | – | – |
| Cc1c(N=Cc2ccccn2)c(=O)n(-c2ccccc2)n1C [Antipy-PCD, 2-Pyridinal-2,3-dihydro-1,5-dimethyl-3-oxo-2-phenyl-1H-pyrazol-4-ylimin] | – | 1,13 | 36 |
| Bis(2-pyridinal-2,3-dihydro-1,5-dimethyl-3-oxo-2-phenyl-1H- pyrazol-4-ylimin)-nickel(II)perchlorat [[(α-Diimin)2Ni](ClO4)2] | – | 1,37 | – |
| Dichloro-2-pyridinal-(2,3-dihydro-1,5-dimethyl-3-oxo-2-phenyl-1H-pyrazol-4-ylimin)ammin-platin(II) [(Antipy-PCD)PtCl2(NH3)] | – | 1,36 | – |
